Experimental data published in US20140148443A1, “Novel Imidazolines as dual inhibitors of MDM2 and MDMX” (priority 2012, published 2014).

Legend:
GST-tagged MDMX = target: T1, GST-tagged MDMX (Homo sapiens, UniProt O15151); experiment: HTRF binding assay of GST-tagged MDMX to p53 peptide
T1 sequence (O15151 1-490): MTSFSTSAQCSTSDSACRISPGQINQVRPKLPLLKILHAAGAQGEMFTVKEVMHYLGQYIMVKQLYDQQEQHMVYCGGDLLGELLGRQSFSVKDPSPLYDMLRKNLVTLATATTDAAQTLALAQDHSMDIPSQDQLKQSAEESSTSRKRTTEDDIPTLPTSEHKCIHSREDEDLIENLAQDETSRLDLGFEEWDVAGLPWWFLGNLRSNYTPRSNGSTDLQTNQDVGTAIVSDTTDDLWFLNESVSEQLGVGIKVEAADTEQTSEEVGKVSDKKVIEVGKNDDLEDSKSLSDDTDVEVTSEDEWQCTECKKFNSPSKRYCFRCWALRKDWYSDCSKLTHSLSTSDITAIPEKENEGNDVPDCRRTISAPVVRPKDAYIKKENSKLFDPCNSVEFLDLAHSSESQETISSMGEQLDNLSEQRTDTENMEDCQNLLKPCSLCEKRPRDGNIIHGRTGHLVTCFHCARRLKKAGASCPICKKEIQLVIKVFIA

[1] = target: recombinant GST-tagged MDM2 (Homo sapiens, UniProt Q00987); experiment: HTRF assay of interaction between p53 peptide and GST-tagged MDM2; details: inhibition of GST-MDM2 (160 ng/ml) binding to biotinylated p53-peptide
How it was run: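 Compounds were preincubated with 160 ng/ml GST-MDM2 and 90 nM N-terminally biotinylated p53-like peptide (final) in 20 mM TBS, 0.02% BSA, 1 mM DTT for 1 h at 37 °C. Eu-anti-GST antibody and streptavidin-APC were added for 30 min at room temperature; binding read as TR-FRET at 665 and 615 nm.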

recombinant GST-tagged MDM2, sequence (Q00987 whole entry): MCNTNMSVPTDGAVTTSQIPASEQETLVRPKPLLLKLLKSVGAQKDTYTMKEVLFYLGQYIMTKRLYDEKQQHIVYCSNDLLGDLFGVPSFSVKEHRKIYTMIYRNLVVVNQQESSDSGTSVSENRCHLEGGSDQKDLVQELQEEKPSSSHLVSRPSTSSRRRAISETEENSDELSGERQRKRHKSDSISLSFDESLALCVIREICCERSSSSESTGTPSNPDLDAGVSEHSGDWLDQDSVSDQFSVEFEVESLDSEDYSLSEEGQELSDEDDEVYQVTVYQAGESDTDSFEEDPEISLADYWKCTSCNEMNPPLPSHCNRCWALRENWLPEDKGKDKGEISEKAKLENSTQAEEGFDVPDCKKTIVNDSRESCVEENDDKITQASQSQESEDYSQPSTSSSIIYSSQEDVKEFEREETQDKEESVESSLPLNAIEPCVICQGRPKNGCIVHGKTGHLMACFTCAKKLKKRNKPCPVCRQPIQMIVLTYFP

Compound	IC50 (GST-tagged MDMX)	IC50 [1]
CCOc1cc(Cl)c(S(=O)(=O)NC(C)(C)C)cc1C1=N[C@@](C)(c2ccc(Cl)cc2)[C@@](C)(c2ccc(Cl)cc2)N1C(=O)N1CCN(CC(=O)NCCOC)CC1 [Example 49, 2-{4-[(4S,5R)-2-(5-tert-Butylsulfamoyl-4-chloro-2-ethoxy-phenyl)-4,5-bis-(4-chloro-phenyl)-4,5-dimethyl-4,5-dihydro-imidazole-1-carbonyl]-piperazin-1-yl}-N-(2-methoxy-ethyl)-acetamide]	1340 nM	8.7 nM
CCOc1cc(Cl)c(S(=O)(=O)NC(C)(C)C)cc1C1=N[C@@](C)(c2ccc(Cl)cc2)[C@@](C)(c2ccc(Cl)cc2)N1C(=O)N1CCN(CCC(N)=O)CC1 [Example 50, 3-{4-[(4S,5R)-2-(5-tert-Butylsulfamoyl-4-chloro-2-ethoxy-phenyl)-4,5-bis-(4-chloro-phenyl)-4,5-dimethyl-4,5-dihydro-imidazole-1-carbonyl]-piperazin-1-yl}-propionamide]	1450 nM	9.3 nM
CCOc1cc(Cl)c(S(=O)(=O)NC(C)(C)C)cc1C1=N[C@@](C)(c2ccc(Cl)cc2)[C@@](C)(c2ccc(Cl)cc2)N1C(=O)N1CCN(C2CCS(=O)(=O)C2)CC1 (stereo partly drawn) [Example 51, 5-{(4S,5R)-4,5-Bis-(4-chloro-phenyl)-1-[4-(1,1-dioxo-tetrahydro-thiophen-3-yl)-piperazine-1-carbonyl]-4,5-dimethyl-4,5-dihydro-1H-imidazol-2-yl}-N-tert-butyl-2-chloro-4-ethoxy-benzenesulfonamide]	798 nM	7 nM
CCOc1cc(Cl)c(S(=O)(=O)NC(C)(C)C)cc1C1=N[C@@](C)(c2ccc(Cl)cc2)[C@@](C)(c2ccc(Cl)cc2)N1C(=O)N1CCN(C(=O)Cn2cnnn2)CC1 [Example 52, 5-{(4S,5R)-4,5-Bis-(4-chloro-phenyl)-4,5-dimethyl-1-[4-(2-tetrazol-1-yl-acetyl)-piperazine-1-carbonyl]-4,5-dihydro-1H-imidazol-2-yl}-N-tert-butyl-2-chloro-4-ethoxy-benzene sulfonamide]	3760 nM	17.3 nM
CCOc1cc(Cl)c(S(=O)(=O)NC(C)(C)C)cc1C1=N[C@@](C)(c2ccc(Cl)cc2)[C@@](C)(c2ccc(Cl)cc2)N1C(=O)N1CCC(N2CCNC(=O)CC2)CC1 [Example 53, 5-{(4S,5R)-4,5-Bis-(4-chloro-phenyl)-4,5-dimethyl-1-[4-(5-oxo-[1,4]diazepan-1-yl)-piperidine-1-carbonyl]-4,5-dihydro-1H-imidazol-2-yl}-N-tert-butyl-2-chloro-4-ethoxy-benzene sulfonamide]	1110 nM	14.5 nM
CCOc1cc(Cl)c(S(=O)(=O)NC(C)(C)C)cc1C1=N[C@@](C)(c2ccc(Cl)cc2)[C@@](C)(c2ccc(Cl)cc2)N1C(=O)N1CCCC(O)C1 (stereo partly drawn) [Example 54, 5-[(4S,5R)-4,5-Bis-(4-chloro-phenyl)-1-(3-hydroxy-piperidine-1-carbonyl)-4,5-dimethyl-4,5-dihydro-1H-imidazol-2-yl]-N-tert-butyl-2-chloro-4-ethoxy-benzenesulfonamide]	4000 nM	16.1 nM
CCCOc1cc(Cl)c(S(=O)(=O)N2CCCC2)cc1C1=N[C@@](C)(c2ccc(Cl)cc2)[C@@](C)(c2ccc(Cl)cc2)N1C(=O)N1CCN(CCCS(C)(=O)=O)CC1 [Example 55, {(4S,5R)-4,5-Bis-(4-chloro-phenyl)-2-[4-chloro-2-propoxy-5-(pyrrolidine-1-sulfonyl)-phenyl]-4,5-dimethyl-4,5-dihydro-imidazol-1-yl}-[4-(3-methanesulfonyl-propyl)-piperazin-1-yl]-methanone]	3940 nM	18.1 nM
CCOc1cc(Cl)c(S(=O)(=O)N2CCCC2)cc1C1=N[C@@](C)(c2ccc(Cl)cc2)[C@@](C)(c2ccc(Cl)cc2)N1C(=O)N1CCC(CC(N)=O)CC1 [Example 56, 2-{1-[(4S,5R)-2-[4-Chloro-2-ethoxy-5-(pyrrolidine-1-sulfonyl)-phenyl]-4,5-bis-(4-chloro-phenyl)-4,5-dimethyl-4,5-dihydro-imidazole-1-carbonyl]-piperidin-4-yl}-acetamide]	3430 nM	8.5 nM
CCOc1cc(Cl)c(S(=O)(=O)N2CCOCC2)cc1C1=N[C@@](C)(c2ccc(Cl)cc2)[C@@](C)(c2ccc(Cl)cc2)N1C(=O)N1CCN(CCCS(C)(=O)=O)CC1 [Example 57, [(4S,5R)-2-[4-Chloro-2-ethoxy-5-(morpholine-4-sulfonyl)-phenyl]-4,5-bis-(4-chloro-phenyl)-4,5-dimethyl-4,5-dihydro-imidazol-1-yl]-[4-(3-methanesulfonyl-propyl)-piperazin-1-yl]-methanone]	1640 nM	40 nM
CC(C)Oc1cc(Cl)c(S(=O)(=O)N2CCCC2)cc1C1=N[C@@](C)(c2ccc(Cl)cc2)[C@@](C)(c2ccc(Cl)cc2)N1C(=O)N1CCN(CCCS(C)(=O)=O)CC1 [Example 58, [(4S,5R)-2-[4-Chloro-2-isopropoxy-5-(pyrrolidine-1-sulfonyl)-phenyl]-4,5-bis-(4-chloro-phenyl)-4,5-dimethyl-4,5-dihydro-imidazol-1-yl]-[4-(3-methanesulfonyl-propyl)-piperazin-1-yl]-methanone]	232 nM	4.6 nM
CC(C)Oc1cc(Cl)c(S(=O)(=O)N2CCCC2)cc1C1=N[C@@](C)(c2ccc(Cl)cc2)[C@@](C)(c2ccc(Cl)cc2)N1C(=O)N1CCC(CC(N)=O)CC1 [Example 59, 2-{1-[(4S,5R)-2-[4-Chloro-2-isopropoxy-5-(pyrrolidine-1-sulfonyl)-phenyl]-4,5-bis-(4-chloro-phenyl)-4,5-dimethyl-4,5-dihydro-imidazole-1-carbonyl]-piperidin-4-yl}-acetamide]	195 nM	5.8 nM
CC(C)Oc1cc(Cl)c(S(=O)(=O)NC(C)(C)C)cc1C1=N[C@@](C)(c2ccc(Cl)cc2)[C@@](C)(c2ccc(Cl)cc2)N1C(=O)N1CCC(CC(N)=O)CC1 [Example 60, 2-{1-[(4S,5R)-2-(5-tert-Butylsulfamoyl-4-chloro-2-isopropoxy-phenyl)-4,5-bis-(4-chloro-phenyl)-4,5-dimethyl-4,5-dihydro-imidazole-1-carbonyl]-piperidin-4-yl}-acetamide]	570 nM	15 nM
CC(C)Oc1cc(Cl)c(S(=O)(=O)N2C[C@H]3CC[C@@H](C2)O3)cc1C1=N[C@@](C)(c2ccc(Cl)cc2)[C@@](C)(c2ccc(Cl)cc2)N1C(=O)N1CCC(CC(N)=O)CC1 [Example 61, 2-{1-[(4S,5R)-2-{4-Chloro-2-isopropoxy-5-[(1R,5S)-(8-oxa-3-aza-bicyclo[3.2.1]oct-3-yl)sulfonyl]-phenyl}-4,5-bis-(4-chloro-phenyl)-4,5-dimethyl-4,5-dihydro-imidazole-1-carbonyl]-piperidin-4-yl}-acetamide]	267 nM	9.1 nM
CC(C)Oc1cc(Cl)c(S(=O)(=O)N2C[C@H]3CC[C@@H](C2)O3)cc1C1=N[C@@](C)(c2ccc(Cl)cc2)[C@@](C)(c2ccc(Cl)cc2)N1C(=O)N1CCN(CCCS(C)(=O)=O)CC1 [Example 62, [(4S,5R)-2-{4-Chloro-2-isopropoxy-5-[(1R,5S)-(8-oxa-3-aza-bicyclo[3.2.1]oct-3-yl)sulfonyl]-phenyl}-4,5-bis-(4-chloro-phenyl)-4,5-dimethyl-4,5-dihydro-imidazol-1-yl]-[4-(3-methanesulfonyl-propyl)-piperazin-1-yl]-methanone]	193 nM	4.8 nM
CC(C)Oc1cc(Cl)c(S(=O)(=O)NC(C)(C)C)cc1C1=N[C@@](C)(c2ccc(Cl)cc2)[C@@](C)(c2ccc(Cl)cc2)N1C(=O)N1CCN(CCCS(C)(=O)=O)CC1 [Example 63, 5-{(4S,5R)-4,5-Bis-(4-chloro-phenyl)-1-[4-(3-methanesulfonyl-propyl)-piperazine-1-carbonyl]-4,5-dimethyl-4,5-dihydro-1H-imidazol-2-yl}-N-tert-butyl-2-chloro-4-isopropoxy-benzenesulfonamide]	212 nM	4.4 nM
CC(C)Oc1cc(Cl)c(S(N)(=O)=O)cc1C1=N[C@@](C)(c2ccc(Cl)cc2)[C@@](C)(c2ccc(Cl)cc2)N1C(=O)N1CCC(CC(N)=O)CC1 [Example 64, 2-{1-[(4S,5R)-2-(4-Chloro-2-isopropoxy-5-sulfamoyl-phenyl)-4,5-bis-(4-chloro-phenyl)-4,5-dimethyl-4,5-dihydro-imidazole-1-carbonyl]-piperidin-4-yl}-acetamide]	283 nM	6.2 nM
CC(C)Oc1cc(Cl)c(S(N)(=O)=O)cc1C1=N[C@@](C)(c2ccc(Cl)cc2)[C@@](C)(c2ccc(Cl)cc2)N1C(=O)N1CCN(CCCS(C)(=O)=O)CC1 [Example 65, 5-{(4S,5R)-4,5-Bis-(4-chloro-phenyl)-1-[4-(3-methanesulfonyl-propyl)-piperazine-1-carbonyl]-4,5-dimethyl-4,5-dihydro-1H-imidazol-2-yl}-2-chloro-4-isopropoxy-benzenesulfonamide]	337 nM	7.7 nM
